Measurements from paper PMC7476666 (Journal of the American Chemical Society, 2016).

Columns and labels:
EphB3 [1] = molecular target: T1, EphB3 (Homo sapiens, UniProt P54753); test: Competition / pulse-chase with probe 10 for EphB3 occupancy in HEK293 cells
T1 sequence (P54753 34-998): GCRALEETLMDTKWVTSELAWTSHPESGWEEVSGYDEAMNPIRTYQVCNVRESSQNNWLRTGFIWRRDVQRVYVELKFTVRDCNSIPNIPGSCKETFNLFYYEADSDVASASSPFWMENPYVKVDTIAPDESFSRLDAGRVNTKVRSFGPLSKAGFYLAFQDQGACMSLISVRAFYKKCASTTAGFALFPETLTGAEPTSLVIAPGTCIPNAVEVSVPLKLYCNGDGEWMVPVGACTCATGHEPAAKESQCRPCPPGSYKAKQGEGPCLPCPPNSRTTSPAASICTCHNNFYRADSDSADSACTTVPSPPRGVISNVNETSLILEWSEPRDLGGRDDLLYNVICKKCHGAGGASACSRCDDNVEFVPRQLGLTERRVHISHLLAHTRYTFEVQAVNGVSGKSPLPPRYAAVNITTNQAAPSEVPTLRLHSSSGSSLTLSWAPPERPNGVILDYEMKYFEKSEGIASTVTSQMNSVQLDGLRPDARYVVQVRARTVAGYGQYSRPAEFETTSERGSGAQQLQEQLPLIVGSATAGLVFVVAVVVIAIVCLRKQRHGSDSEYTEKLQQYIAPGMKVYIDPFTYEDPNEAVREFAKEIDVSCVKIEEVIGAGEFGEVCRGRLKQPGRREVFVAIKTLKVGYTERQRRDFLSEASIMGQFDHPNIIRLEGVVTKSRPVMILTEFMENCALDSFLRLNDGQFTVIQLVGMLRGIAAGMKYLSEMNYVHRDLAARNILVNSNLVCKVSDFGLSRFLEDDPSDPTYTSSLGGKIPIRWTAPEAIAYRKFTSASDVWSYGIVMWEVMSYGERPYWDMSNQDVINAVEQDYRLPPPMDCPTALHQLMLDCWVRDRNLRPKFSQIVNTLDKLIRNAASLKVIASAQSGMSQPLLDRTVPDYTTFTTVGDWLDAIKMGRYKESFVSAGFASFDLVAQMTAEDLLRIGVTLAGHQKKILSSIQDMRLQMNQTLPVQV

EphB3 WT = molecular target: T2, EphB3 WT (Homo sapiens, UniProt P54753); test: EphB3 autophosphorylation in transfected HEK293 cells; assay type: cell-based; settings: read-out: IC50, EphB3 autophosphorylation in cells
T2 sequence (P54753 34-998): T1 sequence (P54753 34-998)

EphB3 [2] = molecular target: T1, EphB3; test: Competition with probe 10 for EphB3 labeling in cell lysate; assay type: binding

time to engage EphB3 (preincubation required to block labeling by 10) (EphB3 [1]; live cells): over 10 min
IC50 (EphB3 [1]; read-out: IC50 for probe labeling of EphB3, competition with 10 (10 nM) in cells): 260 nM
IC50 (EphB3 WT): 320 nM
time to engage EphB3 (preincubation required to compete off labeling by 10) (EphB3 [2]): over 10 min
Compound: Cc1ccc(C(=O)Nc2cccc(C(F)(F)F)c2)cc1Nc1nc(-c2cccnc2)nc2c1cnn2C [BHG-712]
